In patent US9365584B2, “Thieno [2,3-B] pyridinedione activators of AMPK and therapeutic uses thereof” (Poxel, priority 2009, dated 2016):

The compounds below were run on AMPK (assay: AMPK enzyme activity assay (Delfia technology, AMARA peptide substrate)). Details: compound at 30 μM vs AMP at 200 μM.
Assay type: biochemical
How it was run: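 Value is the ratio of compound (30 μM) to AMP (200 μM) response, each as % of basal control. Phosphorylation of the AMARA peptide after AMPK addition was read by Delfia with an anti-phosphoserine antibody.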

Row | SMILES | Activity: Ratio between the % of control (basal activity) of compound of formula (1) at 30 μM and the % of control (basal activity) of AMP (natural substrate) at 200 μM
1 | COc1c(-c2c(Cl)sc3c2C(=O)C(F)(c2ccccc2)C(=O)N3)ccc(C)c1F (centres unmarked) [No 230, 2-chloro-5-fluoro-3-(3-fluoro-2-methoxy-4-methyl-phenyl)-5-phenyl-7H-thieno[2,3-b]pyridine-4,6-dione] | A (0%<A<50%)
2 | Cc1ccc(-c2c(Cl)sc3c2C(=O)C(F)(c2cccc(C#N)c2)C(=O)N3)cc1C (centres unmarked) [No 217, 3-[2-chloro-3-(3,4-dimethylphenyl)-5-fluoro-4,6-dioxo-7H-thieno[2,3-b]pyridin-5-yl]benzonitrile] | C (C≧75%)
3 | COc1cccc(O)c1-c1csc2c1C(=O)C(F)(c1ccccc1)C(=O)N2 (centres unmarked) [No 112, 5-fluoro-3-(2-hydroxy-6-methoxy-phenyl)-5-phenyl-7H-thieno[2,3-b]pyridine-4,6-dione] | A (0%<A<50%)
4 | COc1cccc(C2(C)C(=O)Nc3sc(Cl)c(-c4ccccc4)c3C2=O)c1 (centres unmarked) [No 38, 2-chloro-5-(3-methoxyphenyl)-5-methyl-3-phenyl-7H-thieno[2,3-b]pyridine-4,6-dione] | A (0%<A<50%)
5 | COc1cccc(-c2csc3c2C(=O)C(F)(c2ccccc2)C(=O)N3)c1 (centres unmarked) [No 205, 5-fluoro-3-(3-methoxyphenyl)-5-phenyl-7H-thieno[2,3-b]pyridine-4,6-dione] | B (50%≦B<75%)
6 | O=C1Nc2sc(Cl)c(-c3cccnc3)c2C(=O)C1(F)c1ccccc1 (centres unmarked) [No 71, 2-chloro-5-fluoro-5-phenyl-3-(3-pyridyl)-7H-thieno[2,3-b]pyridine-4,6-dione] | B (50%≦B<75%)
7 | COc1ccc(-c2c(Cl)sc3c2C(=O)C(C)(c2ccc(OC)cc2)C(=O)N3)cc1 (centres unmarked) [No 86, 2-chloro-3,5-bis(4-methoxyphenyl)-5-methyl-7H-thieno[2,3-b]pyridine-4,6-dione] | A (0%<A<50%)
8 | O=C1Nc2sc(F)c(-c3ccc(F)cc3OCc3ccccc3)c2C(=O)C1(F)c1ccccc1 (centres unmarked) [No 175, 3-(2-benzyloxy-4-fluoro-phenyl)-2,5-difluoro-5-phenyl-7H-thieno[2,3-b]pyridine-4,6-dione] | A (0%<A<50%)
9 | N#Cc1cccc(C2(F)C(=O)Nc3sc(Cl)c(-c4cccc(F)c4)c3C2=O)c1 (centres unmarked) [No 211, 3-[2-chloro-5-fluoro-3-(3-fluorophenyl)-4,6-dioxo-7H-thieno[2,3-b]pyridin-5-yl]benzonitrile] | C (C≧75%)
10 | CC1(c2ccc(S(C)(=O)=O)cc2)C(=O)Nc2sc(Cl)c(-c3ccc(F)cc3)c2C1=O (centres unmarked) [No 54, 2-chloro-3-(4-fluorophenyl)-5-methyl-5-(4-methyl-sulfonylphenyl)-7H-thieno[2,3-b]pyridine-4,6-dione] | A (0%<A<50%)
11 | COC1(c2ccccc2)C(=O)Nc2sc(Cl)c(-c3ccc(F)cc3O)c2C1=O (centres unmarked) [No 231, 2-chloro-3-(4-fluoro-2-hydroxy-phenyl)-5-methoxy-5-phenyl-7H-thieno[2,3-b]pyridine-4,6-dione] | C (C≧75%)
12 | CC1(c2cccc(S(C)(=O)=O)c2)C(=O)Nc2sc(Cl)c(-c3ccccc3F)c2C1=O (centres unmarked) [No 139, 2-chloro-3-(2-fluorophenyl)-5-methyl-5-(3-methyl-sulfonylphenyl)-7H-thieno[2,3-b]pyridine-4,6-dione] | A (0%<A<50%)
13 | COc1cc(C)ccc1-c1c(F)sc2c1C(=O)C(F)(c1ccccc1)C(=O)N2 (centres unmarked) [No 119, 2,5-difluoro-3-(2-methoxy-4-methyl-phenyl)-5-phenyl-7H-thieno[2,3-b]pyridine-4,6-dione] | B (50%≦B<75%)
14 | COc1ccc(C2(F)C(=O)Nc3sc(F)c(-c4ccc(F)cc4)c3C2=O)cc1 (centres unmarked) [No 165, 2,5-difluoro-3-(4-fluorophenyl)-5-(4-methoxyphenyl)-7H-thieno[2,3-b]pyridine-4,6-dione] | C (C≧75%)
15 | COc1ccc(OCc2ccccc2)c(-c2csc3c2C(=O)C(F)(c2ccccc2)C(=O)N3)c1 (centres unmarked) [No 152, 3-(2-benzyloxy-5-methoxy-phenyl)-5-fluoro-5-phenyl-7H-thieno[2,3-b]pyridine-4,6-dione] | B (50%≦B<75%)
16 | COc1cc(C)ccc1-c1csc2c1C(=O)C(F)(c1cccc(C#N)c1)C(=O)N2 (centres unmarked) [No 110, 3-[5-fluoro-3-(2-methoxy-4-methyl-phenyl)-4,6-dioxo-7H-thieno[2,3-b]pyridin-5-yl]benzonitrile] | C (C≧75%)
17 | COc1cc(C)ccc1-c1c(F)sc2c1C(=O)C(F)(c1cccc(C#N)c1)C(=O)N2 (centres unmarked) [No 111, 3-[2,5-difluoro-3-(2-methoxy-4-methyl-phenyl)-4,6-dioxo-7H-thieno[2,3-b]pyridin-5-yl]benzonitrile] | C (C≧75%)
18 | COc1ccc(-c2c(Cl)sc3c2C(=O)C(C)(c2ccccc2F)C(=O)N3)cc1 (centres unmarked) [No 153, 2-chloro-5-(2-fluorophenyl)-3-(4-methoxyphenyl)-5-methyl-7H-thieno[2,3-b]pyridine-4,6-dione] | A (0%<A<50%)
19 | COc1cccc(C2(C)C(=O)Nc3sc(Cl)c(-c4ccccc4OC)c3C2=O)c1 (centres unmarked) [No 68, 2-chloro-3-(2-methoxyphenyl)-5-(3-methoxyphenyl)-5-methyl-7H-thieno[2,3-b]pyridine-4,6-dione] | C (C≧75%)
20 | Cc1cccc(-c2c(Cl)sc3c2C(=O)C(F)(c2ccccc2)C(=O)N3)c1 (centres unmarked) [No 79, 2-chloro-5-fluoro-3-(m-tolyl)-5-phenyl-7H-thieno[2,3-b]pyridine-4,6-dione] | C (C≧75%)
21 | Cc1ccc(-c2c(Cl)sc3c2C(=O)C(F)(c2ccc(F)cc2)C(=O)N3)c(O)c1F (centres unmarked) [No 228, 2-chloro-5-fluoro-3-(3-fluoro-2-hydroxy-4-methyl-phenyl)-5-(4-fluorophenyl)-7H-thieno[2,3-b]pyridine-4,6-dione] | C (C≧75%)
22 | Cc1ccc(C2(C)C(=O)Nc3sc(Cl)c(-c4cccc(F)c4)c3C2=O)cc1 (centres unmarked) [No 60, 2-chloro-3-(3-fluorophenyl)-5-methyl-5-(p-tolyl)-7H-thieno[2,3-b]pyridine-4,6-dione] | C (C≧75%)
23 | COc1ccc(C2(C)C(=O)Nc3sc(Cl)c(-c4ccc(C)cc4)c3C2=O)cc1 (centres unmarked) [No 150, 2-chloro-5-(4-methoxyphenyl)-5-methyl-3-(p-tolyl)-7H-thieno[2,3-b]pyridine-4,6-dione] | A (0%<A<50%)
24 | COc1ccccc1-c1csc2c1C(=O)C(F)(c1ccccc1)C(=O)N2 (centres unmarked) [No 180, 5-fluoro-3-(2-methoxyphenyl)-5-phenyl-7H-thieno[2,3-b]pyridine-4,6-dione] | A (0%<A<50%)
25 | COc1ccc(C2(C)C(=O)Nc3sc(Cl)c(-c4ccccc4OC)c3C2=O)cc1 (centres unmarked) [No 67, 2-chloro-3-(2-methoxyphenyl)-5-(4-methoxyphenyl)-5-methyl-7H-thieno[2,3-b]pyridine-4,6-dione] | C (C≧75%)
26 | CC1(c2cccc(S(C)(=O)=O)c2)C(=O)Nc2sc(Cl)c(-c3cccc(F)c3)c2C1=O (centres unmarked) [No 148, 2-chloro-3-(3-fluorophenyl)-5-methyl-5-(3-methyl-sulfonylphenyl)-7H-thieno[2,3-b]pyridine-4,6-dione] | A (0%<A<50%)
27 | Cc1ccc(C2(F)C(=O)Nc3scc(-c4ccc(F)cc4O)c3C2=O)cc1 (centres unmarked) [No 109, 5-fluoro-3-(4-fluoro-2-hydroxy-phenyl)-5-(p-tolyl)-7H-thieno[2,3-b]pyridine-4,6-dione] | C (C≧75%)
28 | Cc1c(F)ccc(-c2csc3c2C(=O)C(F)(c2ccccc2)C(=O)N3)c1O (centres unmarked) [No 102, 5-fluoro-3-(4-fluoro-2-hydroxy-3-methyl-phenyl)-5-phenyl-7H-thieno[2,3-b]pyridine-4,6-dione] | C (C≧75%)
29 | COc1ccccc1C1(F)C(=O)Nc2sc(C)c(-c3ccccc3)c2C1=O (centres unmarked) [No 78, 5-fluoro-5-(2-methoxyphenyl)-2-methyl-3-phenyl-7H-thieno[2,3-b]pyridine-4,6-dione] | A (0%<A<50%)
30 | COc1ccccc1-c1c(Cl)sc2c1C(=O)C(C)(c1ccc(F)cc1)C(=O)N2 (centres unmarked) [No 52, 2-chloro-5-(4-fluorophenyl)-3-(2-methoxyphenyl)-5-methyl-7H-thieno[2,3-b]pyridine-4,6-dione] | A (0%<A<50%)

Same assay, conditions: compound at 30 μM vs AMP at 200 μM; listed as 4

Row | SMILES | Activity: Ratio between the % of control (basal activity) of compound of formula (1) at 30 μM and the % of control (basal activity) of AMP (natural substrate) at 200 μM
31 | COc1cc(C)ccc1-c1csc2c1C(=O)C(F)(c1cccc(C#N)c1)C(=O)N2 (centres unmarked) [No 110, 3-[5-fluoro-3-(2-methoxy-4-methyl-phenyl)-4,6-dioxo-7H-thieno[2,3-b]pyridin-5-yl]benzonitrile] | A (0%<A<50%)

Same assay, conditions: compound at 30 μM vs AMP at 200 μM; listed as 5

Row | SMILES | Activity: Ratio between the % of control (basal activity) of compound of formula (1) at 30 μM and the % of control (basal activity) of AMP (natural substrate) at 200 μM
32 | COc1cc(C)ccc1-c1c(F)sc2c1C(=O)C(F)(c1cccc(C#N)c1)C(=O)N2 (centres unmarked) [No 111, 3-[2,5-difluoro-3-(2-methoxy-4-methyl-phenyl)-4,6-dioxo-7H-thieno[2,3-b]pyridin-5-yl]benzonitrile] | A (0%<A<50%)
